Experimental data from patent publication US20220048893A1, “Compounds for Treating Neurodegenerative Diseases and Cancers” (Hongyi & Associates LLC, priority 2019, published 2022).

Assay: In vivo PK study, oral, plasma and brain
Parameters: species or system Sprague Dawley rats; AUC(0-t) / AUC(0-inf): concentration or dose not given beside the values
Conditions: for brain permeability compared to Nilotinib and Imatinib: in vivo PK studies; for Kp / AUC(0-inf) / AUC(0-t) / Cmax / Tmax / half-life: rat, oral, Sprague Dawley rats; for Kp: brain and plasma, read-out: AUC(0-t) Brain/ AUC(0-t) plasma
Method: In the PK profiling study, Compounds 1 and 2 were administered orally to three Sprague Dawley rats. The animals were fasted overnight before drug administration. The food supply were resumed 4 hrs post dose. Blood samples were collected at 8 time points after dose: 0.25 h, 0.5 h, 1 h, 2 h, 4 h, 6 h, 8 h and 24 h. There are three samples for each time point. Brain tissues were collected after 24 hour blood sample collection. Drug concentrations in blood and brain were analyzed by LC-MS/MS. The analytical results were confirmed using quality control samples for intra-assay variation. The accuracy of >66.7% of the quality control samples should be between 80-120% of the known values. Standard set of parameters including area under the curve (AUC(0-t) and AUC(0-∞)), elimination half-life (T1/2), maximum plasma concentration (Cmax), time to reach maximum plasma concentration (Tmax) were calculated using noncompartmental analysis modules in FDA certified pharmacokinetic program Phoenix WinNonlin 7.0 (Pharsight, USA). The ratio of brain to plasma concentration were calculated by the concentration in brain tissue versus the concentration in plasma.

SMILES | brain permeability compared to Nilotinib and Imatinib | Kp | AUC(0-inf) (Brain) [µg·h/mL] | AUC(0-t) (Brain) [µg·h/mL] | Cmax (Brain) [µg/mL] | Tmax (Brain) [h] | half-life (Brain) [h] | AUC(0-inf) (Plasma) [µg·h/mL] | AUC(0-t) (Plasma) [µg·h/mL] | Cmax (Plasma) [µg/mL] | Tmax (Plasma) [h] | half-life (Plasma) [h]
Cc1ccc(C(=O)Nc2ccc(CC(C)N(C)C)cc2)cc1Nc1ccnc(-c2cccnc2)n1 (stereo not drawn) [Compound 1, N-(4-(2-(dimethylamino)propyl)phenyl)-4-methyl-3-((2-(pyridin-3-yl)pyrimidin-4-yl)amino)benzamide] | much improved brain permeability | 0.121 | 8.74 | 7.72 | 0.557 | 6 | 7.1 | 65.4 | 64 | 6.68 | 4 | 3.98
Cc1ccc(C(=O)Nc2ccc(C3CCN(C)CC3)cc2)cc1Nc1ccnc(-c2cccnc2)n1 [Compound 2, 4-methyl-N-(4-(1-methylpiperidin-4-yl)phenyl)-3-((2-(pyridin-3-yl)pyrimidin-4-yl)amino)benzamide] | much improved brain permeability | 0.142 | 25.6 | 13.1 | 0.796 | 6 | 20.2 | 219 | 92 | 5.38 | 6 | 26.8
